Experiments:
[1] = tested on: zymosan-induced PMN cell accumulation in guinea-pig skin; test: Zymosan-induced PMN cell accumulation in skin; settings: for % Inhibition of PMN cell accumulation: together with zymosan 0.2mg.site^-1
[2] = tested on: Zymosan-induced Granylocyte-dependent PPE; test: Zymosan-induced granulocyte-dependent plasma protein extravasation in skin; assay type: in vivo, guinea-pig; set-up: Zymosan-induced Granylocyte-dependent PPE: unit not given here
Procedure: (§1) The effect of β2-adrenoreceptor agonists on granulocyte-dependent and independent vascular permeability induced in guinea-pig skin, by intradermal challenge with zymosan and histamine respectively, was evaluated using a modification of the method of Issekutz Lab. Invest .,45 , 435-441(1981).
(§2) Plasma protein extravasation (PPE) was calculated as µl plasma equivalents.

histamine-induced PPE = test: Histamine-induced plasma protein extravasation in the lung; assay type: in vivo, guinea-pigs
From the text: Briefly, guinea-pigs (male Dunkin Hartley, 300-400g) were given an intracardiac injection of iodinated human serum albumin (0.5µCi) in heparinised saline (10U.ml^-1).

[3] = tested on: PAF-induced eosinophil infiltration; test: PAF-induced eosinophil infiltration in bronchoalveolar lavage fluid; assay type: in vivo, guinea-pigs; settings: inhalation 0.1mg.ml^-1 30 min prior to PAF 100µg.ml^-1; 24 hours after challenge (PAF alone 97.7 ± 18.8, baseline 53.3 ± 12.5)
Procedure: (§3) Briefly, guinea-pigs (male Dunkin Hartley, 300-400g) were exposed to an aerosol of 100µg.ml^-1 E. coli lipopolysaccharide (LPS;026:B6, Sigma Ltd) or 100µg.ml^-1 platelet activating factor (PAF; Sigma Ltd.) for 10 min. […] The total leukocyte count of the bronchoalveolar lavage fluid (BALF) recovered was determined. A cytospin preparation was prepared from the BALF, fixed with methanol, stained with Wright's stain and a differential leukocyte count was carried out.

[4] = tested on: LPS-induced neutrophil accumulation; test: LPS-induced neutrophil accumulation in bronchoalveolar lavage fluid; assay type: in vivo, guinea-pigs; settings: 0.1 mg.ml^-1 aerosol 30 min prior to LPS 100µg.ml^-1; 4 hours after challenge (LPS alone 141.3 ± 33.3, baseline 3.8 ± 1.2)
Procedure: as §3

[5] = tested on: Histamine-induced Granulocyte Independent PPE; test: Histamine-induced granulocyte-independent plasma protein extravasation in skin; assay type: in vivo, guinea-pig
Procedure: as §1, §2

[6] = Cavia porcellus, PMN, po, read-out: % Inhibition of PMN cell accumulation

| SMILES | inhibition at 1 mg/kg [1, 6] [%] | inhibition at 10 mg/kg [1, 6] [%] | % Inhibition of PMN cell accumulation ([1]; Intradermal 10^-8 (nmol.site^-1)) [%] | % Inhibition of PMN cell accumulation ([1]; Intradermal 10^-9 (nmol.site^-1)) [%] | Zymosan-induced Granylocyte-dependent PPE ([2]; Intradermal 10^-8 (nmol.site^-1), co-administered with zymosan) | Zymosan-induced Granylocyte-dependent PPE ([2]; Intradermal 10^-9 (nmol.site^-1), co-administered with zymosan) | Zymosan-induced Granylocyte-dependent PPE ([2]; Oral 1.0 mg.kg^-1, 1 hour before zymosan 0.2mg.site^-1) | Zymosan-induced Granylocyte-dependent PPE ([2]; Oral 10.0 mg.kg^-1, 1 hour before zymosan 0.2mg.site^-1) | inhibition of histamine-induced PPE at the highest doses (histamine-induced PPE; aerosol, nebuliser concentration 0.001-1mg.ml^-1) | BALF eosinophil count [3] | BALF neutrophil count [4] | Histamine-induced Granulocyte Independent PPE ([5]; Oral 1.0 mg.kg^-1, 1 hour before histamine 100ng.site^-1) | Histamine-induced Granulocyte Independent PPE ([5]; Oral 10.0 mg.kg^-1, 1 hour before histamine 100ng.site^-1) | inhibitory effect on PMN cell accumulation ([1]; 10-100mg.kg^-1 p.o.) | inhibitory effect on zymosan-induced PPE ([2]; 10-100mg.kg^-1 p.o.) | ED50 (histamine-induced PPE; Cavia porcellus, po, 0.5 h, p.o., 30 min prior to histamine, read-out: ED50, inhibition of histamine-induced PPE) [mg/kg] | time after which there is substantial loss of activity against histamine induced PPE (histamine-induced PPE; equi-effective doses) [h] | dose required for a comparable effect on granulocyte-independent PPE, relative to salmeterol ([5]; compared with salmeterol 10mg.kg^-1 p.o.) |
| --- | --- | --- | --- | --- | --- | --- | --- | --- | --- | --- | --- | --- | --- | --- | --- | --- | --- | --- |
| OCc1cc(C(O)CNCCCCCCOCCCCc2ccccc2)ccc1O (stereo not drawn) [salmeterol, 4-hydroxy-α^1-[[[6-(4-phenylbutoxy)hexyl]amino]methyl]-1,3-benzenedimethanol] | 27 | 59 | 51 | 16 | 51.7 | 1.8 | 47.0 | 56.0 | complete inhibition | 59.2 ± 19.8 x10^3 cells.ml^-1 | 46.8 ± 9.1 x10^3 cells.ml^-1 | 9.2 | 58.5 | – | – | – | – | – |
| CC(C)(C)NCC(O)c1ccc(O)c(CO)c1 (stereo not drawn) [salbutamol, reference compound] | – | – | – | – | – | – | – | – | – | – | – | – | – | no significant inhibitory effect | no inhibitory effect | 0.02 | 2 | Approximately 10 fold |

Source: patent EP1078629A2 (GLAXO GROUP LIMITED, priority 1989, dated 1991)
